These results are taken from patent US20160271263A1 (Novo Nordisk A/S, priority 2010, published 2016).

Numbered stars: 1 amine (or outer) side, 2 acyl side, 3 side chain; on linkers, the order of the positions; unused ones are H or OH. Square brackets hold non-standard residues; d marks the D form. Side chains are listed from the residue outwards. Peptide text beside a SMILES is read from it. * marks the point of attachment. C18 diacid = O=C(O)CCCCCCCCCCCCCCCCC(=O)*; γGlu = O=C(O)[C@H](CCC(=O)[*:2])N[*:1]; AEEA = NCCOCCOCC(=O)O; Aib = CC(C)(N)C(=O)O

glucagon receptor, sequence (P47871 26-477): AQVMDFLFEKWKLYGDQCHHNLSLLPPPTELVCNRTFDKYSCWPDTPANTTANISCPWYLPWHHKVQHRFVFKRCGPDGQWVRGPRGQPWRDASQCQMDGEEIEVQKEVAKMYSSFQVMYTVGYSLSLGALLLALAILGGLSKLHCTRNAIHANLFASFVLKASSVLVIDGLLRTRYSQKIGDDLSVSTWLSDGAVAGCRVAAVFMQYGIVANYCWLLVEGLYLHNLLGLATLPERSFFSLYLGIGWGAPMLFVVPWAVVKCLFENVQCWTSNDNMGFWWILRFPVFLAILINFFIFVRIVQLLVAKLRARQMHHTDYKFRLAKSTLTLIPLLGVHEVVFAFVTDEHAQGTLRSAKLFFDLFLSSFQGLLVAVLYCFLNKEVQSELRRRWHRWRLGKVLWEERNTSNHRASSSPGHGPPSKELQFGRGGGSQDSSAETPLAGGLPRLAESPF

The test addresses glucagon receptor (Homo sapiens, UniProt P47871). In words: cell-based.
The term EC50 denotes the concentration that produces a half-maximal response. Turning to `CC(C)C[C@H](NC(=O)[C@H](Cc1ccc(O)cc1)NC(=O)[C@H](CCCCN)NC(=O)[C@H](CO)NC(=O)[C@H](Cc1ccc(O)cc1)NC(=O)[C@H](CC(=O)O)NC(=O)[C@H](CO)NC(=O)[C@@H](NC(=O)[C@H](Cc1ccccc1)NC(=O)[C@@H](NC(=O)CNC(=O)[C@H](CCC(N)=O)NC(=O)[C@H](CO)NC(=O)[C@@H](N)Cc1c[nH]cn1)[C@@H](C)O)[C@@H](C)O)C(=O)N[C@@H](CC(=O)O)C(=O)N[C@@H](CCCCNC(=O)CC[C@H](NC(=O)CC[C@H](NC(=O)COCCOCCNC(=O)COCCOCCNC(=O)CC[C@H](NC(=O)CCCCCCCCCCCCCCCCC(=O)O)C(=O)O)C(=O)O)C(=O)O)C(=O)N[C@@H](CCCNC(=N)N)C(=O)N[C@@H](CCCNC(=N)N)C(=O)N[C@@H](C)C(=O)N[C@@H](CCC(N)=O)C(=O)N[C@@H](CCC(=O)O)C(=O)N[C@@H](Cc1ccccc1)C(=O)N[C@H](C(=O)N[C@@H](CCC(N)=O)C(=O)N[C@@H](CCCNC(=N)N)C(=O)N[C@@H](CC(C)C)C(=O)N[C@@H](CC(C)C)C(=O)N[C@@H](CC(N)=O)C(=O)N[C@H](C(=O)O)[C@@H](C)O)C(C)C` [Example 100, N^ε16-[(4S)-4-carboxy-4-[[(4S)-4-carboxy-4-[[2-[2-[2-[[2-[2-[2-[[(4S)-4-carboxy-4-(17-carboxyheptadecanoylamino)butanoyl]amino]ethoxy]ethoxy]acetyl]amino]ethoxy]ethoxy]acetyl]amino]butanoyl]amino]butanoyl]-[Lys^16,Glu^21,Arg^25,Leu^27]-Glucagon] (H-HSQGTFTSDYSKYLDK([γGlu-γGlu-AEEA-AEEA-γGlu-C18 diacid])RRAQEFVQRLLNT-OH), the half-maximal effective concentration (EC50) stood at 0.45 nM.

Turning to `CC(C)C[C@H](NC(=O)[C@H](Cc1ccc(O)cc1)NC(=O)[C@H](CCCCN)NC(=O)[C@H](CO)NC(=O)[C@H](Cc1ccc(O)cc1)NC(=O)[C@H](CC(=O)O)NC(=O)[C@H](CO)NC(=O)[C@@H](NC(=O)[C@H](Cc1ccccc1)NC(=O)[C@@H](NC(=O)CNC(=O)[C@H](CCC(N)=O)NC(=O)C(C)(C)NC(=O)[C@@H](N)Cc1c[nH]cn1)[C@@H](C)O)[C@@H](C)O)C(=O)N[C@@H](CC(=O)O)C(=O)N[C@@H](CCC(=O)O)C(=O)N[C@@H](CCCNC(=N)N)C(=O)N[C@@H](CCCNC(=N)N)C(=O)N[C@@H](C)C(=O)N[C@@H](CCC(N)=O)C(=O)N[C@@H](CC(=O)O)C(=O)N[C@@H](Cc1ccccc1)C(=O)N[C@H](C(=O)N[C@@H](CCCCNC(=O)COCCOCCNC(=O)COCCOCCNC(=O)CC[C@H](NC(=O)CCCCCCCCCCCCCCCCC(=O)O)C(=O)O)C(=O)N[C@@H](Cc1c[nH]c2ccccc12)C(=O)N[C@@H](CC(C)C)C(=O)N[C@@H](CC(C)C)C(=O)N[C@@H](CC(N)=O)C(=O)N[C@H](C(N)=O)[C@@H](C)O)C(C)C` [Example 29, N^ε24-([2-[2-[2-[[2-[2-[2-[[(4S)-5-hydroxy-4-[(18-hydroxy-18-oxooctadecanoyl)amino]-5-oxopentanoyl]amino]ethoxy]ethoxy]acetyl]amino]ethoxy]ethoxy]acetyl]) [Aib^2,Glu^16,Lys^24,Leu^27]Glucagon peptide amide] (H-H[Aib]QGTFTSDYSKYLDERRAQDFVK([AEEA-AEEA-γGlu-C18 diacid])WLLNT-NH2; N-terminus assumed), the EC50 was 0.135 nM.

Turning to `CC(C)C[C@H](NC(=O)[C@H](Cc1ccc(O)cc1)NC(=O)[C@H](CCCCN)NC(=O)[C@H](CO)NC(=O)[C@H](Cc1ccc(O)cc1)NC(=O)[C@H](CC(=O)O)NC(=O)[C@H](CO)NC(=O)[C@@H](NC(=O)[C@H](Cc1ccccc1)NC(=O)[C@@H](NC(=O)CNC(=O)[C@H](CCC(N)=O)NC(=O)[C@H](CO)NC(=O)[C@@H](N)Cc1c[nH]cn1)[C@@H](C)O)[C@@H](C)O)C(=O)N[C@@H](CC(=O)O)C(=O)N[C@@H](CO)C(=O)N[C@@H](CCCNC(=N)N)C(=O)N[C@@H](CCCNC(=N)N)C(=O)N[C@@H](C)C(=O)N[C@@H](CCC(N)=O)C(=O)N[C@@H](CC(=O)O)C(=O)N[C@@H](Cc1ccccc1)C(=O)N[C@H](C(=O)N[C@@H](CCCCNC(=O)COCCOCCNC(=O)COCCOCCNC(=O)CC[C@H](NC(=O)CCCCCCCCCCCCCCCCC(=O)O)C(=O)O)C(=O)N[C@@H](Cc1ccc(OP(=O)(O)O)cc1)C(=O)N[C@@H](CC(C)C)C(=O)N[C@@H](CC(C)C)C(=O)N[C@@H](CC(N)=O)C(=O)N[C@H](C(=O)O)[C@@H](C)O)C(C)C` [Example 56, N^ε24-([2-[2-[2-[[2-[2-[2-[[(4S)-5-hydroxy-4-[(18-hydroxy-18-oxooctadecanoyl)amino]-5-oxopentanoyl]amino]ethoxy]ethoxy]acetyl]amino]ethoxy]ethoxy]acetyl]) [Lys^24, (p)Tyr^25,Leu^27] Glucagon], the EC50 was 0.171 nM.

Turning to `CC(C)C[C@H](NC(=O)[C@H](Cc1ccc(O)cc1)NC(=O)[C@H](CCCCN)NC(=O)[C@H](CO)NC(=O)[C@H](Cc1ccc(O)cc1)NC(=O)[C@H](CC(=O)O)NC(=O)[C@H](CO)NC(=O)[C@@H](NC(=O)[C@H](Cc1ccccc1)NC(=O)[C@@H](NC(=O)CNC(=O)[C@H](CCC(N)=O)NC(=O)[C@H](CO)NC(=O)[C@@H](N)Cc1c[nH]cn1)[C@@H](C)O)[C@@H](C)O)C(=O)N[C@@H](CC(=O)O)C(=O)N[C@@H](CCCCNC(=O)COCCOCCNC(=O)COCCOCCNC(=O)CC[C@H](NC(=O)CC[C@H](NC(=O)CC[C@H](NC(=O)CCCCCCCCCCCCCCCCC(=O)O)C(=O)O)C(=O)O)C(=O)O)C(=O)N[C@@H](CCCNC(=N)N)C(=O)N[C@@H](CCCNC(=N)N)C(=O)N[C@@H](C)C(=O)N[C@@H](CCC(N)=O)C(=O)N[C@@H](CC(=O)O)C(=O)N[C@@H](Cc1ccccc1)C(=O)N[C@H](C(=O)N[C@@H](CCC(N)=O)C(=O)N[C@@H](Cc1c[nH]c2ccccc12)C(=O)N[C@@H](CC(C)C)C(=O)N[C@@H](CC(C)C)C(=O)N[C@@H](CC(N)=O)C(=O)N[C@H](C(=O)O)[C@@H](C)O)C(C)C` [Example 77, N^ε16-[2-[2-[2-[[2-[2-[2-[[(4S)-4-carboxy-4-[[(4S)-4-carboxy-4-[[(4S)-4-carboxy-4-(17-carboxyheptadecanoylamino)butanoyl]amino]butanoyl]amino]butanoyl]amino]ethoxy]ethoxy]acetyl]amino]ethoxy]ethoxy]acetyl]-[Lys^16,Leu^27]-Glucagon] (H-HSQGTFTSDYSKYLDK([AEEA-AEEA-γGlu-γGlu-γGlu-C18 diacid])RRAQDFVQWLLNT-OH; N-terminus and C-terminus assumed), the 50% effective concentration (EC50) is 0.081 nM.

`CC(C)C[C@H](NC(=O)[C@H](Cc1ccc(O)cc1)NC(=O)[C@H](CCCCNC(=O)CC[C@H](NC(=O)CC[C@H](NC(=O)COCCOCCNC(=O)COCCOCCNC(=O)CC[C@H](NC(=O)CCCCCCCCCCCCCCCCC(=O)O)C(=O)O)C(=O)O)C(=O)O)NC(=O)[C@H](CO)NC(=O)[C@H](Cc1ccc(O)cc1)NC(=O)[C@H](CC(=O)O)NC(=O)[C@H](CO)NC(=O)[C@@H](NC(=O)[C@H](Cc1ccccc1)NC(=O)[C@@H](NC(=O)CNC(=O)[C@H](CCC(N)=O)NC(=O)[C@H](CO)NC(=O)[C@@H](N)Cc1c[nH]cn1)[C@@H](C)O)[C@@H](C)O)C(=O)N[C@@H](CC(=O)O)C(=O)N[C@@H](CO)C(=O)N[C@@H](CCCNC(=N)N)C(=O)N[C@@H](CCCNC(=N)N)C(=O)N[C@@H](C)C(=O)N[C@@H](CCC(N)=O)C(=O)N[C@@H](CC(=O)O)C(=O)N[C@@H](Cc1ccccc1)C(=O)N[C@H](C(=O)N[C@@H](CCC(N)=O)C(=O)N[C@@H](Cc1c[nH]c2ccccc12)C(=O)N[C@@H](CC(C)C)C(=O)N[C@@H](CC(C)C)C(=O)N[C@@H](CC(N)=O)C(=O)N1CCC[C@H]1C(=O)O)C(C)C` [Example 80, N^ε12-[(4S)-4-carboxy-4-[[(4S)-4-carboxy-4-[[2-[2-[2-[[2-[2-[2-[[(4S)-4-carboxy-4-(17-carboxyheptadecanoylamino)butanoyl]amino]ethoxy]ethoxy]acetyl]amino]ethoxy]ethoxy]acetyl]amino]butanoyl]amino]butanoyl]-[Leu^27,Pro^29]-Glucagon] returned a 50% effective concentration (EC50) of 1.58 nM.

Take `CC(C)C[C@H](NC(=O)[C@H](Cc1ccc(O)cc1)NC(=O)[C@H](CCCCN)NC(=O)[C@H](CO)NC(=O)[C@H](Cc1ccc(O)cc1)NC(=O)[C@H](CC(=O)O)NC(=O)[C@H](CO)NC(=O)[C@@H](NC(=O)[C@H](Cc1ccccc1)NC(=O)[C@@H](NC(=O)CNC(=O)[C@H](CCC(N)=O)NC(=O)[C@H](CO)NC(=O)[C@@H](N)Cc1c[nH]cn1)[C@@H](C)O)[C@@H](C)O)C(=O)N[C@@H](CC(=O)O)C(=O)N[C@@H](CCC(=O)O)C(=O)N[C@@H](CCCCN)C(=O)N[C@@H](CCCNC(=N)N)C(=O)N[C@@H](C)C(=O)N[C@@H](CCC(N)=O)C(=O)N[C@@H](CCC(=O)O)C(=O)N[C@@H](Cc1ccccc1)C(=O)N[C@H](C(=O)N[C@@H](CCCCNC(=O)COCCOCCNC(=O)COCCOCCNC(=O)CC[C@H](NC(=O)CCCCCCCCCCCCCCCCC(=O)O)C(=O)O)C(=O)N[C@@H](Cc1c[nH]c2ccccc12)C(=O)N[C@@H](CC(C)C)C(=O)N[C@@H](CC(C)C)C(=O)N[C@@H](CC(N)=O)C(=O)N[C@H](C(N)=O)[C@@H](C)O)C(C)C` [Example 38, N^ε24-([2-[2-[2-[[2-[2-[2-[[(4S)-5-hydroxy-4-[(18-hydroxy-18-oxooctadecanoyl)amino]-5-oxopentanoyl]amino]ethoxy]ethoxy]acetyl]amino]ethoxy]ethoxy]acetyl])[Glu^16, Lys^17, Glu^21, Lys^24,Leu^27] Glucagon peptide amide] (H-HSQGTFTSDYSKYLDEKRAQEFVK([AEEA-AEEA-γGlu-C18 diacid])WLLNT-NH2; N-terminus assumed): the EC50 was 0.015 nM.

`CC(C)C[C@H](NC(=O)[C@H](Cc1ccc(O)cc1)NC(=O)[C@H](CCCCN)NC(=O)[C@H](CO)NC(=O)[C@H](Cc1ccc(O)cc1)NC(=O)[C@H](CC(=O)O)NC(=O)[C@H](CO)NC(=O)[C@@H](NC(=O)[C@H](Cc1ccccc1)NC(=O)[C@@H](NC(=O)CNC(=O)[C@H](CCC(N)=O)NC(=O)[C@H](CO)NC(=O)[C@@H](N)Cc1c[nH]cn1)[C@@H](C)O)[C@@H](C)O)C(=O)N[C@@H](CC(=O)O)C(=O)N[C@@H](CO)C(=O)N[C@@H](CCCNC(=N)N)C(=O)N[C@@H](CCCNC(=N)N)C(=O)N[C@@H](C)C(=O)N[C@@H](CCC(N)=O)C(=O)N[C@@H](CC(=O)O)C(=O)N[C@@H](Cc1ccccc1)C(=O)N[C@H](C(=O)N[C@@H](CCCCNC(=O)COCCOCCNC(=O)COCCOCCNC(=O)CC[C@H](NC(=O)CCCCCCCCCCCCCCCCC(=O)O)C(=O)O)C(=O)N[C@@H](Cc1c[nH]c2ccccc12)C(=O)N[C@@H](CC(C)C)C(=O)N[C@@H](CC(C)C)C(=O)N[C@H](C(=O)N[C@H](C(=O)O)[C@@H](C)O)[C@@H](C)O)C(C)C` [Example 15] gave a concentration giving a half-maximal response (EC50) of 0.024 nM.
